“Also recorded” adds a separate entry of the source.
Assays:
stressed mice [1] = assay: Elevated plus maze (EPM), UCMS-stressed mice, Examples 1-3; format: in vivo; settings: UCMS-stressed male ICR mice; herbs and NHT 30 mg/kg, escitalopram 15 mg/kg i.p., 3 weeks; vs vehicle
Procedure: ICR outbred 28-30 days old male mice (Envigo, Israel) were maintained in the vivarium of the Open University lab in Hadassah Ein Karem medical cement, Jerusalem. Mice were group housed (5 mice per cage) and each cage contained mice from all treatment groups. Mice were given ad libitum access to food and water except during stressor application (with the exclusion of the light/dark cycle reversal). Mice kept on a reversed 12 h light/dark cycle (lights on 7:00 pm-7:00 am) while experimental procedures were performed during the dark phase under red light. All experiments were approved by the Open University of Israel committee for animal care and use. Methods were carried out in accordance with the NIH guidelines.
The EPM task was performed as previously described [6]. Shortly, each mouse was placed in the center of the maze and video recorded for 5 min. Anxiety-like behavior was expressed as the time the mouse spent in the open, unprotected arms of the maze. […]

[2] = Body weight monitoring, stressed mice; format: in vivo; settings: UCMS-stressed mice, Shan-zha and NHT 30 mg/kg, escitalopram 15 mg/kg i.p., 3 weeks, vs vehicle
Procedure: (§1) Crataegus pinnatifida, Triticum aestivum, Lilium brownii and Fructus zizyphi jujuba were purchased as freeze-dried granules (KPC Products, Inc., Irvine, CA, USA). Each herb was dissolved in saline with 1% dimethylsulfoxide (DMSO) to a final concentration of 0.47 mg/ml and injected i.p. individually (30 mg/kg) or with the other components to form the formula (NHT, 30 mg/kg). […] Vehicle treatment included i.p. injection of saline with 1% DMSO. All treatments were carried out for 3 weeks. Mice were weighed every 3 days throughout the treatment period. Change in weight was calculated as final (weight-initial weight)/initial weight×100.

stressed mice [3] = assay: Evaluation of sexual function (number of mounts), stressed mice; format: in vivo; settings: UCMS-stressed male mice, 30 min with female in estrus, Shan-zha and NHT 30 mg/kg, escitalopram 15 mg/kg i.p., 3 weeks, vs vehicle
Procedure: as §1, with “Each male mouse was placed with a female mouse in estrus in the male's home cage during the dark phase under red dim light for 30 min. Number of mounts” for “Mice”, “coded by an observer blind to” for “weighed every 3 days throughout”, “treatment.” for “treatment period. Change in weight was calculated as final (weight-initial weight)/initial weight×100.”

dams = assay: EPM in dams after restrain stress during gestation; format: in vivo, mice; settings: PND21, 15 mg/kg s.c. daily PND1-PND21
Procedure: (§2) The EPM task was performed as previously described. Shortly, each mouse was placed in the center of the maze and video recorded for 5 min. Anxiety-like behavior was expressed as the time the mouse spent in the open, unprotected arms of the maze.
(§3) Female (n=40) and male (n=5) ICR outbred mice (100 days old; Envigo RMS, Jerusalem, Israel) were housed at 22±1° C. under 12 h light/dark cycles in the vivarium of the Open University lab in Hadassah medical center, Jerusalem. Mice had ad libitum access to rodent chow and water. Mice were housed in standard cages with a bed of woodchips and a piece of cotton wool for enrichment. All experiments were performed during the dark phase of the cycle. Male mice were used to father pups and were housed apart (5 per cage) from females until mating. […] Once a vaginal plug was identified, the females were transferred to a separate cage until parturition. Overall, 455 pups were delivered of which 317 (male: n=165; female: n=152) were designated for this study. Unassessed pups were maintained with littermates to avoid additional stress and ensure similar conditions. […]
(§4) Following mating, dams were separated to individual cages and were observed periodically to ensure onset of pregnancy. […] Shortly after, anxiety-like behavior was assessed on the EPM and dams were assigned to treatment group (escitalopram/shan-zha/vehicle). […]

21 days old pups = assay: EPM in 21 days old pups treated via lactation; format: in vivo, mice
Procedure: as §2, §3, §4

stressed mice [4] = assay: EPM, UCMS-stressed mice, Example 7; format: in vivo
Procedure: Animals. ICR outbred mice (Envigo RMS (Harlen), Israel) are kept in the vivarium of the Open University lab in Hadassah medical center, Jerusalem. Mice are kept on a reversed 12 h light/dark cycle and given ad libitum access to food and water. All experiments are performed during the dark phase under red light (7:00-19:00). All experiments have been approved by the committee for animal care and use according to the NIH guidelines. Drugs. Drugs are dissolved in saline and 1% DMSO to the desired concentration and administered i.p. Herbal mixture and Shan-zha (30 mg/kg) will be prepared by dissolving each component (KPC Products, Inc., CA, USA) to a final concentration of 0.47 mg/ml. […] Unpredictable chronic mild stress (UCMS). Mice are exposed to UCMS for 4 weeks at the age of 4 weeks as previously described. Elevated plus maze (EPM). This task is based on the natural tendency of mice to avoid open and elevated places. EPM are performed as previously described. Anxiety-like behavior are expressed as the time the animal spent in the open, unprotected arms of the maze.

## CN(C)CCC[C@@]1(c2ccc(F)cc2)OCc2cc(C#N)ccc21 [escitalopram]
Stressed mice [1]
  time spent in the open arms of the EPM (anxiety-like behavior): spent more time in the open arms of the maze in comparison with vehicle-treated mice; also recorded: reduced anxiety-like behavior in the EPM compared to vehicle
[2]
  weight change: significantly increased weight compared to vehicle
[2]; listed as Escitalopram
  weight change: higher weight gain in comparison with vehicle-treated mice
Stressed mice [3]
  sexual function (number of mounts): significantly reduced sexual function compared to vehicle
Stressed mice [3]; listed as Escitalopram
  sexual function (number of mounts): lower number of mounts in comparison with vehicle-treated mice
dams; restrain stress during gestation, 15 mg/kg
  anxiety-like behavior in the EPM, treated stressed dams vs saline-treated stressed dams: saline-treated stressed dams demonstrated elevated anxiety-like behavior compared to both shan-zha- and escitalopram-treated stressed dams; also recorded: the stress-vehicle group demonstrated increased anxiety-like behavior compared to the naïve-vehicle, stress-escitalopram and stress-shan-zha groups
dams; stressed vs naive dams
  effect of stress manipulation on time spent in open arms within treatment group, dams: Stress manipulation did not affect time spent in open arms
21 days old pups; PND21, stressed vs naive pups
  stress-induced anxiety-like behavior within treatment group, pups: No similar stress-induced anxiety-like behavior was observed
21 days old pups; PND21, prenatal stress, treatment via lactation, dams 15 mg/kg s.c. daily
  anxiety-like behavior in the EPM, treated stressed pups vs saline-treated stressed pups: saline-treated stressed pups demonstrated elevated anxiety-like behavior compared to both shan-zha- and escitalopram-treated stressed pups; also recorded: the stress-vehicle group demonstrated increased anxiety-like behavior compared to the naïve-vehicle, stress-escitalopram and stress-shan-zha groups
Stressed mice [4]; stressed mice, 30 mg/kg (escitalopram 15 mg/kg) i.p., 3 weeks, vs vehicle
  anxiety-like behavior in the EPM: exhibited reduced anxiety-like behavior in the EPM compared to vehicle-treated stressed mice
Stressed mice [4]; vs saline, fractions SZ 50% and SZ 20% at 3 mg, listed as Escitalopram
  time (seconds) spent in open arms in the EPM, FIG. 22 experiment: Mice treated with saline spent significantly less time in open arms in comparison to other treatment groups

From patent US20240016875A1, “SHAN-ZHA FOR THE TREATMENT OF DEPRESSION AND ANXIETY DISORDERS” (THE OPEN UNIVERSITY, priority 2020, published 2024)
